We go through two molecules from paper PMC12480552 (Scientific Reports, 2025).

Marks after values point to notes of the source that are not given here.

Series [1] is described as follows: MALDI MSI of brain sections, mouse model of brain metastasis (MDA231-BrM2-831). The series is classed as in vivo, NCr nude mice. The source says:
A luciferase-transfected human breast adenocarcinoma cell line (MDA 231-BRM2-831) was used to generate a metastatic brain tumor model in female athymic nude mice. […] NCr nude mice (strain: CrTac: NCr-Foxn1^nu; female; 5-7 weeks old; Taconic Biosciences (Germantown, NY)) were used for these studies. A power analysis was completed by a statistician to determine the appropriate sample sizes for each group to measure a statistically significant. […] Control mice (n = 10) underwent a sham IC procedure (needle insertion into the ventricle without cell injection. All mice were monitored for tumor development by bioluminescence imaging (BLI) approximately once weekly for ~ 45 days, beginning 1 h after cell injection. In vivo BLI was performed at ~ 10 min post-luciferin injection (corresponding to the peak bioluminescent signal) using an IVIS Spectrum-CT system (PerkinElmer, Waltham, MA). Imaging parameters were set to automatic exposure in the Living Image software, while the binning (8) and aperture (open f-stop) remained at the default settings for all BLI acquisitions. The imaging frequency was increased to twice weekly for mice that developed brain metastases (BMs) as indicated by increased bioluminescence in the cranial region. […] The exact tumor size was not measured as an endpoint of this study. […] Two hours after the final dose, mice were euthanized by CO2 asphyxiation. At necropsy, a terminal blood sample was collected via cardia puncture, and the brains were harvested and snap-frozen by floating on liquid nitrogen. […] From each plane, serial tissue sections were collected for MALDI MSI and for H&E staining, and immunohistochemistry (IHC) staining. Tissue trimmings from between each plane were collected, homogenized, and submitted for bioanalysis in addition to the terminal plasma samples. For the mouse metastases study, tissue sections were collected from five horizontal tissue planes starting from roughly 1 mm from the top of the tissue, and each subsequent tissue plane was separated by roughly 1 mm. […] For MALDI MSI analysis, sections were thaw-mounted onto indium tin oxide-coated slides (Delta Technologies, Ltd, Loveland, CO). For H&E and IHC analyses, tissue sections were collected onto superfrost glass slides (Fisher Scientific, Waltham, MA). Brain tissue trimmings from between each of the horizontal planes were pooled and collected into a pre-weighed vial for homogenization and LC-MS/MS bioanalysis (described in detail later). […] Arraymold, Ogden, UT). […] DMSO: […] […] Ion images were loaded into […] […] Statistical significance was set at p < 0.05.

Series [2] can be described thus: LC-MS/MS bioanalysis of plasma and brain homogenate, mouse model of brain metastasis (MDA231-BrM2-831). The settings on record: for Kp at 2 h / Kp uu at 2 h / concentration at 2 h: female, NCr nude (CrTac:NCr-Foxn1nu), mouse, oral; for concentration at 2 h: oral once daily 5 days, niraparib 35 mg/kg or olaparib 50 mg/kg, 2 h after final dose. The series is classed as in vivo, NCr nude mice. The source says: A luciferase-transfected human breast adenocarcinoma cell line (MDA 231-BRM2-831) was used to generate a metastatic brain tumor model in female athymic nude mice. […] NCr nude mice (strain: CrTac: NCr-Foxn1^nu; female; 5–7 weeks old; Taconic Biosciences (Germantown, NY)) were used for these studies. A power analysis was completed by a statistician to determine the appropriate sample sizes for each group to measure a statistically significant. […] Control mice (n = 10) underwent a sham IC procedure (needle insertion into the ventricle without cell injection. All mice were monitored for tumor development by bioluminescence imaging (BLI) approximately once weekly for ~ 45 days, beginning 1 h after cell injection. In vivo BLI was performed at ~ 10 min post-luciferin injection (corresponding to the peak bioluminescent signal) using an IVIS Spectrum-CT system (PerkinElmer, Waltham, MA). Imaging parameters were set to automatic exposure in the Living Image software, while the binning (8) and aperture (open f-stop) remained at the default settings for all BLI acquisitions. The imaging frequency was increased to twice weekly for mice that developed brain metastases (BMs) as indicated by increased bioluminescence in the cranial region. […] The exact tumor size was not measured as an endpoint of this study. […] Two hours after the final dose, mice were euthanized by CO2 asphyxiation. At necropsy, a terminal blood sample was collected via cardia puncture, and the brains were harvested and snap-frozen by floating on liquid nitrogen. […] From each plane, serial tissue sections were collected for MALDI MSI and for H&E staining, and immunohistochemistry (IHC) staining. Tissue trimmings from between each plane were collected, homogenized, and submitted for bioanalysis in addition to the terminal plasma samples.

The next series is described as follows: in vivo. The protocol: Female C57BL/6 mice were inoculated intracranially on the right side of the brain in the right frontal lobe with mouse glioblastoma (GL261) tumor cells (≈ 2 × 10^5) in 3 µL of phosphate-buffered saline for the tumor development. Mice were observed daily for clinical signs, and any mouse meeting predefined criteria for moribund status was euthanized. Criteria for moribund sacrifice included: ≥ 20% body weight loss or severe neurological symptoms (e.g., prostration, paralysis, seizures, hemorrhage).
Mice were euthanized by CO2 asphyxiation.
Brain tissue was weighed in polypropylene tubes, then PBS was added to the tissue sample before homogenization (1:4 wt: vol).
The LC-MS/MS system included an API-6500 triple quadrupole mass spectrometer (Sciex). Data were acquired and processed using Analyst® 1.7.2 software (Sciex). An Acquity UHPLC BEH C18 analytical column (1.7-µm, 2.1 × 50 mm; Waters) was applied in sample analysis.
For olaparib, the LLQ was 5.00 ng/mL, and the HLQ was 1000 ng/mL.
First, the brain tissue partition coefficient Kp, brain was calculated using Eq. (1).
Where Css, brain is the mean steady-state total drug concentration in brain tissue, and Css, plasma is the mean steady-state total drug concentration in plasma (both measured by LC-MS/MS). […] Finally, Kp, uu, brain was calculated using Eq. (2).2 [drawing 2]

Where [3] appears, read: brain, BM mice (niraparib n = 4, olaparib n = 3), read-out: Group mean (SD) Kp, brain.
Setting [4] is: brain, BM mice (niraparib n = 4, olaparib n = 3), read-out: Group mean (SD) Kp, uu, brain.
Where [5] appears, read: brain, No BM mice (n = 3), read-out: LC-MS/MS Bulk brain tissue, mean (SD).
Where [6] appears, read: brain, No BM mice (n = 3), read-out: Group mean (SD) Kp, brain.
The mark [7] stands for this setting: brain, No BM mice (n = 3), read-out: Group mean (SD) Kp, uu, brain.
Where [8] appears, read: brain, all mice (BM and no-BM combined), read-out: Mean Kp, brain.
Where [9] appears, read: brain, all mice (BM and no-BM combined), read-out: Mean Kp, uu, brain.
[10] abbreviates: plasma, No BM mice (n = 3), read-out: LC-MS/MS Terminal plasma, mean (SD).
[11] abbreviates: female, C57BL/6, mouse, brain tumor, oral.
[12] abbreviates: female, C57BL/6, mouse, contralateral normal brain, oral.
The mark [13] stands for this setting: female, C57BL/6, mouse, contralateral normal brain/plasma, oral.
Where [14] appears, read: female, C57BL/6, mouse, normal brain, oral, 35 mg/kg.
[15] abbreviates: BM mice (niraparib n = 4, olaparib n = 3), oral once daily 5 days, niraparib 35 mg/kg or olaparib 50 mg/kg, 2 h after final dose, LOD 70 ng/g niraparib, 170 ng/g olaparib.

Take `NC(=O)c1cccc2cn(-c3ccc([C@@H]4CCCNC4)cc3)nc12` [Niraparib]: the concentration at 2 h in series [1] (female, NCr nude (CrTac:NCr-Foxn1nu), mouse, brain (sections), oral, 35 mg/kg, read-out: MALDI MSI Brain sections, mean (SD)) was 519 ng/g; in series [1] (female, NCr nude (CrTac:NCr-Foxn1nu), mouse, brain metastasis tumor tissue, oral, 35 mg/kg, all tumor-containing sections (n = 42) in all BM animals (n = 4), niraparib 35 mg/kg, read-out: MALDI MSI mean localized tumor concentration), about 1700 ng/g; in series [1] (female, NCr nude (CrTac:NCr-Foxn1nu), mouse, brain tumor, oral, 35 mg/kg, read-out: MALDI MSI Brain tumors, mean (SD)), 2400 ng/g; in series [1] (female, NCr nude (CrTac:NCr-Foxn1nu), mouse, brain ventricles, oral, 35 mg/kg, all ventricle-containing sections (n = 48) in all BM animals, niraparib 35 mg/kg, read-out: MALDI MSI mean concentration in the ventricles) it was about 1860 ng/g; in series [1] (female, NCr nude (CrTac:NCr-Foxn1nu), mouse, brain, oral, 35 mg/kg, read-out: MALDI MSI Brain sections, mean (SD)) it was 487 ng/g; in series [1] (female, NCr nude (CrTac:NCr-Foxn1nu), mouse, whole brain (sections), oral, 35 mg/kg, Brain Metastases, Mouse 1, Fig. 2B, read-out: MALDI MSI Mean Conc., whole brain, individual mouse), 430 ng/g. The concentration at 2 h came to 640 ng/g in series [1] (female, NCr nude (CrTac:NCr-Foxn1nu), mouse, whole brain (sections), oral, 35 mg/kg, Brain Metastases, Mouse 2, Fig. 2B, read-out: MALDI MSI Mean Conc., whole brain, individual mouse); 540 ng/g in series [1] (female, NCr nude (CrTac:NCr-Foxn1nu), mouse, whole brain (sections), oral, 35 mg/kg, Brain Metastases, Mouse 3, Fig. 2B, read-out: MALDI MSI Mean Conc., whole brain, individual mouse); 340 ng/g in series [1] (female, NCr nude (CrTac:NCr-Foxn1nu), mouse, whole brain (sections), oral, 35 mg/kg, Brain Metastases, Mouse 4, Fig. 2B, read-out: MALDI MSI Mean Conc., whole brain, individual mouse); 400 ng/g in series [1] (female, NCr nude (CrTac:NCr-Foxn1nu), mouse, whole brain (sections), oral, 35 mg/kg, No Brain Metastases, Mouse 8, Fig. 2B, read-out: MALDI MSI Mean Conc., whole brain, individual mouse); 560 ng/g in series [1] (female, NCr nude (CrTac:NCr-Foxn1nu), mouse, whole brain (sections), oral, 35 mg/kg, No Brain Metastases, Mouse 9, Fig. 2B, read-out: MALDI MSI Mean Conc., whole brain, individual mouse); 600 ng/g in series [1] (female, NCr nude (CrTac:NCr-Foxn1nu), mouse, whole brain (sections), oral, 35 mg/kg, No Brain Metastases, Mouse 10, Fig. 2B, read-out: MALDI MSI Mean Conc., whole brain, individual mouse). Moreover, the figures for the concentration at 2 h in series [2] (setting [5]) and in series [2] (setting [10]) were 658 ng/g and 3850 ng/mL, respectively. Further, the Kp at 2 h in series [1] (female, NCr nude (CrTac:NCr-Foxn1nu), mouse, oral, 35 mg/kg, BM mice, mean brain tumor ROI total concentration by MALDI MSI versus terminal plasma total concentration) was found to be 0.945; in series [2] (setting [3]), 0.214; in series [2] (setting [6]), 0.171; in series [2] (setting [8]), 0.193; in the series “in vivo” (setting [11]) it was 0.893; in the series “in vivo” (female, C57BL/6, mouse, normal brain, oral) it was 0.08. The “overall mean Kp, uu, brain, niraparib higher than olaparib” value in series [2] (all mice (BM and no-BM combined)) is recorded as “about 1.2 fold”. For the same molecule, the Kp uu at 2 h in series [2] (setting [4]) is 0.03; in series [2] (setting [7]), 0.024; in series [2] (setting [9]), 0.026; in the series “in vivo” (setting [13]), 0.011. Further, the concentration at 24 h in the series “in vivo” (setting [11]) was 436 ng/g; in the series “in vivo” (setting [12]), 171 ng/g. Moreover, the Kp at 24 h in the series “in vivo” (female, C57BL/6, mouse, brain tumor, oral, 35 mg/kg) came out at 0.465; in the series “in vivo” (setting [14]), 0.182. This molecule showed a Kp uu at 24 h in the series “in vivo” (setting [14]) of 0.025.

Regarding `O=C(c1cc(Cc2n[nH]c(=O)c3ccccc23)ccc1F)N1CCN(C(=O)C2CC2)CC1` [Olaparib], the “MALDI MSI Brain sections, mean (SD)” value was “< LOD” in series [1] (setting [15]) and “< LOD” in series [1] (No BM mice (n = 3), oral once daily 5 days, niraparib 35 mg/kg or olaparib 50 mg/kg, 2 h after final dose, LOD 70 ng/g niraparib, 170 ng/g olaparib). Moreover, the “MALDI MSI Brain tumors, mean (SD)” value in series [1] (setting [15]) is “< LOD”. For the same molecule, the Kp at 2 h in series [2] (setting [3]) is 0.102; in series [2] (setting [6]), 0.027; in series [2] (setting [8]), 0.036; in the series “in vivo” (setting [11]) it was 0.126; in the series “in vivo” (setting [13]) it was 0.031. The Kp uu at 2 h in series [2] (setting [4]) worked out at 0.047; in series [2] (setting [7]), 0.015; in series [2] (setting [9]), 0.022; in the series “in vivo” (female, C57BL/6, mouse, in vivo), 0.02. For the same molecule, the concentration at 2 h in series [2] (setting [5]) is 5 ng/g; in series [2] (setting [10]), 226 ng/mL. In the series “in vivo” (2 h since dose, normal brain), the “Kp, brain” value came to 0.031. Moreover, the “Brain tumor, mean (SD)” value in “in vivo” (24 h since dose, n = 9, olaparib: only three of nine animals had detectable drug levels) is 78 (92)^d ng/g. Besides, in “in vivo” (setting [12]), the concentration at 24 h was found to be 8 ng/g.
